Data published in PMC3935458 (Journal of medicinal chemistry, 2012).

Legend:
[1] = tested on: phosphorylation of C-Nap1; test: Phosphorylated C-Nap1 in cell assay; conditions: for modulation of C-Nap1 phosphorylation: aphidicolin-synchronized U2OS cells, different concentrations
Nek2 = biological target: T1, Nek2 (Homo sapiens, UniProt P51955); type: biochemical
T1 sequence (P51955 1-445): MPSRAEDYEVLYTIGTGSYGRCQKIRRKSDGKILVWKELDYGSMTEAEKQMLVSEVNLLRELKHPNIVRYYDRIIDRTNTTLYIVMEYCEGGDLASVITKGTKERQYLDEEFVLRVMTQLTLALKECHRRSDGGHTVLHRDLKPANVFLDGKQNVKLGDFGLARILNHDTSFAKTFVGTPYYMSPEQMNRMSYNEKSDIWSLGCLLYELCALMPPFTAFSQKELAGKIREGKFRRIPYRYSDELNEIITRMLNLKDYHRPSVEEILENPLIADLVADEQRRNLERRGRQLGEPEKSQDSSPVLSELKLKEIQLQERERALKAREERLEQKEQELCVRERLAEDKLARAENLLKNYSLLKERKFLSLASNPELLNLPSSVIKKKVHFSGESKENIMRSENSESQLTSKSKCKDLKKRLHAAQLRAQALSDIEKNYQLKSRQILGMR

| SMILES | modulation of C-Nap1 phosphorylation [1] | further results |
| --- | --- | --- |
| CC(Oc1cc(-n2cnc3cc(OC4CCN(C)CC4)ccc32)ccc1C(N)=O)c1ccccc1C(F)(F)F (racemic) [rac-3, reference compound] | did not show any significant modulation of C-Nap1 phosphorylation | – |
| CC(Oc1cc(-c2cc(-c3ccc(CN4CCOCC4)s3)cnc2N)ccc1C(N)=O)c1ccccc1C(F)(F)F (stereo not shown) [17g] | – | increase of Nek2 IC50 compared with compound 17c (Nek2): more than 7 fold |
| C[C@@H](Oc1cc(-c2cc(-c3cc(CN(C)C)cs3)cnc2N)ccc1C(N)=O)c1ccccc1C(F)(F)F [(R)-17j] | – | IC50 ([1]; Homo sapiens, U2OS, 3 h, read-out: IC50 for C-Nap1 phosphorylation inhibition): 2700 nM |
| C[C@@H](/C=C\C(F)(F)F)Oc1cc(-c2cc(-c3cc(CN(C)C)cs3)cnc2N)ccc1C(N)=O [(S)-21, (S)-(Z)-4-(2-Amino-5-(4-((dimethylamino)methyl)thiophen-2-yl)pyridin-3-yl)-2-((5,5,5-trifluoropent-3-en-2-yl)oxy)benzamide] | significantly less suppression of C-Nap1 phosphorylation | – |
